Active and inactive are the calls of the source. The rule behind the calls is not given here.
Key:
[1] = Cell cycle arrest in human KB cells assessed as accumulation at G2/M-phase measured after 36 hrs by propidium iodide staining-based flow cytometry (reference value: 27.34%); assay type: functional
[2] = Cell cycle arrest in human KB cells assessed as accumulation at SubG1-phase at 0.1 uM measured after 12 hrs by propidium iodide staining-based flow cytometry (reference value: 1.23%); assay type: functional
[3] = Cell cycle arrest in human KB cells assessed as accumulation at G0/G1-phase at 0.1 uM measured after 48 hrs by propidium iodide staining-based flow cytometry (reference value: 58.26%); assay type: functional
[4] = Cell cycle arrest in human KB cells assessed as accumulation at S-phase at 0.2 uM measured after 48 hrs by propidium iodide staining-based flow cytometry (reference value: 13.32%); assay type: functional
[5] = Antiproliferative activity against human SGC7901 cells measured after 72 hrs by MTT assay; assay type: functional, cell-based; conditions: SGC-7901, 72 h
[6] = Cell cycle arrest in human KB cells assessed as accumulation at SubG1-phase at 0.2 uM measured after 24 hrs by propidium iodide staining-based flow cytometry (reference value: 0.76%); assay type: functional
[7] = Cell cycle arrest in human KB cells assessed as accumulation at G0/G1-phase at 0.05 uM measured after 48 hrs by propidium iodide staining-based flow cytometry (reference value: 58.26%); assay type: functional
[8] = Cell cycle arrest in human KB cells assessed as accumulation at G0/G1-phase at 0.05 uM measured after 12 hrs by propidium iodide staining-based flow cytometry (reference value: 48.26%); assay type: functional
[9] = Cell cycle arrest in human KB cells assessed as accumulation at G2/M-phase at 0.1 uM measured after 12 hrs by propidium iodide staining-based flow cytometry (reference value: 30.19%); assay type: functional
[10] = Cell cycle arrest in human KB cells assessed as accumulation at G0/G1-phase at 0.05 uM measured after 36 hrs by propidium iodide staining-based flow cytometry (reference value: 51.51%); assay type: functional
[11] = Cell cycle arrest in human KB cells assessed as accumulation at G2/M-phase at 0.2 uM measured after 36 hrs by propidium iodide staining-based flow cytometry (reference value: 27.34%); assay type: functional
KB = test: Inhibition of alpha-tubulin in human KB cells assessed as induction of mitotic catastrophe by measuring multiple micronuclei formation at 0.2 uM by DAPI staining-based immunofluorescence assay; assay type: cell-based
[12] = Cell cycle arrest in human KB cells assessed as accumulation at SubG1-phase at 0.2 uM measured after 48 hrs by propidium iodide staining-based flow cytometry (reference value: 0.61%); assay type: functional

SMILES: COc1ccc(-c2ssc(=O)c2-c2cc(OC)c(OC)c(OC)c2)cc1N
- Activity [1]: 27.9%
- Activity [2]: 2.67%
- Activity [3]: 15.5%
- Activity [4]: 13.1%
- IC50 [5]: 172 nM
- Activity [6]: 11.1%
- Activity [7]: 50.9%
- Activity [8]: 43%
- Activity [9]: 62.8%
- Activity [10]: 50.3%
- Activity [11]: 34.7%
- Activity (KB): Active
- Activity [12]: 49.9%

Reference: ChEMBL document CHEMBL3865818, “4,5-Diaryl-3H-1,2-dithiole-3-thiones and related compounds as combretastatin A-4/oltipraz hybrids: Synthesis, molecular modelling and evaluation as antiproliferative agents and inhibitors of tubulin” (Eur J Med Chem, 2016)
